PubChem BioAssay (NCI)
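Values below derive from 48-hour exposures of cells grown in 96-well plates, with endpoints linearly interpolated between the two concentrations bracketing the appropriate inhibition level. TGI: concentration producing complete growth inhibition.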

Tests used:
Experiment in all cases: inhibition of tumour cell growth, NCI panel, 48 h
[1] = tested on: 786-0 renal
[2] = tested on: A498 renal
[3] = tested on: A549 NSCLC
[4] = tested on: ACHN renal
[5] = tested on: BT-549 breast
[6] = tested on: CAKI-1 renal
[7] = tested on: CCRF-CEM leukemia
[8] = tested on: COLO 205 colon
[9] = tested on: DU-145 prostate
[10] = tested on: EKVX NSCLC
[11] = tested on: HCC-2998 colon
[12] = tested on: HCT-116 colon
[13] = tested on: HCT-15 colon
[14] = tested on: HL-60(TB) leukemia
[15] = tested on: HOP-62 NSCLC
[16] = tested on: HOP-92 NSCLC
[17] = tested on: HS 578T breast
[18] = tested on: HT29 colon
[19] = tested on: IGROV1 ovarian
[20] = tested on: K-562 leukemia
[21] = tested on: KM12 colon
[22] = tested on: LOX IMVI melanoma
[23] = tested on: M14 melanoma
[24] = tested on: MALME-3M melanoma
[25] = tested on: MCF7 breast
[26] = tested on: MDA-MB-231 breast
[27] = tested on: MDA-MB-435
[28] = tested on: MDA-N
[29] = tested on: MOLT-4 leukemia
[30] = tested on: NCI-H226 lung
[31] = tested on: NCI-H23 lung
[32] = tested on: NCI-H460 lung
[33] = tested on: NCI-H522 lung
[34] = tested on: NCI/ADR-RES ovarian
[35] = tested on: OVCAR-3 ovarian
[36] = tested on: OVCAR-4 ovarian
[37] = tested on: OVCAR-5 ovarian
[38] = tested on: OVCAR-8 ovarian
[39] = tested on: PC-3 prostate
[40] = tested on: RPMI-8226 leukemia
[41] = tested on: RXF 393 renal
[42] = tested on: SF-268 CNS
[43] = tested on: SF-295 CNS
[44] = tested on: SF-539 CNS
[45] = tested on: SK-MEL-2 melanoma
[46] = tested on: SK-MEL-28 melanoma
[47] = tested on: SK-MEL-5 melanoma
[48] = tested on: SK-OV-3 ovarian
[49] = tested on: SN12C renal
[50] = tested on: SNB-19 CNS
[51] = tested on: SNB-75 CNS
[52] = tested on: SW-620 colon
[53] = tested on: T-47D breast
[54] = tested on: TK-10 renal
[55] = tested on: U251 CNS
[56] = tested on: UACC-257 melanoma
[57] = tested on: UACC-62 melanoma
[58] = tested on: UO-31 renal

## O=C(/C=C\Nc1ccccc1O)C(Cl)(Cl)Cl
[1]
  TGI: 64.7 µM
[2]
  TGI: > 100 µM
[3]
  TGI: > 100 µM
[4]
  TGI: > 100 µM
[5]
  TGI: > 100 µM
[6]
  TGI: > 100 µM
[7]
  TGI: > 100 µM
[8]
  TGI: > 100 µM
[9]
  TGI: > 100 µM
[10]
  TGI: > 100 µM
[11]
  TGI: 52.6 µM
[12]
  TGI: > 100 µM
[13]
  TGI: > 100 µM
[14]
  TGI: > 100 µM
[15]
  TGI: 52.7 µM
[16]
  TGI: > 100 µM
[17]
  TGI: > 100 µM
[18]
  TGI: > 100 µM
[19]
  TGI: > 100 µM
[20]
  TGI: > 100 µM
[21]
  TGI: > 100 µM
[22]
  TGI: > 100 µM
[23]
  TGI: > 100 µM
[24]
  TGI: > 100 µM
[25]
  TGI: 64.5 µM
[26]
  TGI: > 100 µM
[27]
  TGI: 43.8 µM
[28]
  TGI: 59.2 µM
[29]
  TGI: > 100 µM
[30]
  TGI: > 100 µM
[31]
  TGI: > 100 µM
[32]
  TGI: > 100 µM
[33]
  TGI: 65 µM
[34]
  TGI: > 100 µM
[35]
  TGI: 43.1 µM
[36]
  TGI: > 100 µM
[37]
  TGI: > 100 µM
[38]
  TGI: > 100 µM
[39]
  TGI: > 100 µM
[40]
  TGI: > 100 µM
[41]
  TGI: > 100 µM
[42]
  TGI: > 100 µM
[43]
  TGI: 35.2 µM
[44]
  TGI: > 100 µM
[45]
  TGI: > 100 µM
[46]
  TGI: > 100 µM
[47]
  TGI: > 100 µM
[48]
  TGI: > 100 µM
[49]
  TGI: > 100 µM
[50]
  TGI: > 100 µM
[51]
  TGI: > 100 µM
[52]
  TGI: > 100 µM
[53]
  TGI: 96.4 µM
[54]
  TGI: > 100 µM
[55]
  TGI: 81.8 µM
[56]
  TGI: > 100 µM
[57]
  TGI: > 100 µM
[58]
  TGI: 76.5 µM

## COc1ccccc1N=N/C(=N/NC(=O)c1ccc(C)cc1)c1ccc(N(CCC#N)CCC#N)cc1OC
[1]
  TGI: > 100 µM
[2]
  TGI: 55.8 µM
[3]
  TGI: > 100 µM
[4]
  TGI: 55.9 µM
[5]
  TGI: 97.4 µM
[6]
  TGI: > 100 µM
[7]
  TGI: 40.9 µM
[8]
  TGI: 31.1 µM
[9]
  TGI: > 100 µM
[10]
  TGI: 69.2 µM
[11]
  TGI: > 100 µM
[12]
  TGI: 59.9 µM
[13]
  TGI: > 100 µM
[14]
  TGI: 26.5 µM
[15]
  TGI: > 100 µM
[16]
  TGI: 95.1 µM
[17]
  TGI: > 100 µM
[18]
  TGI: 85.4 µM
[19]
  TGI: > 100 µM
[20]
  TGI: > 100 µM
[21]
  TGI: 84.4 µM
[22]
  TGI: > 100 µM
[23]
  TGI: > 100 µM
[24]
  TGI: 81.9 µM
[25]
  TGI: 63.1 µM
[26]
  TGI: 79.4 µM
[27]
  TGI: > 100 µM
[28]
  TGI: 53.5 µM
[29]
  TGI: 49.6 µM
[30]
  TGI: > 100 µM
[31]
  TGI: > 100 µM
[32]
  TGI: > 100 µM
[33]
  TGI: 79 µM
[34]
  TGI: > 100 µM
[35]
  TGI: > 100 µM
[36]
  TGI: > 100 µM
[37]
  TGI: > 100 µM
[38]
  TGI: > 100 µM
[39]
  TGI: 71.2 µM
[40]
  TGI: 33.5 µM
[41]
  TGI: > 100 µM
[42]
  TGI: 77.8 µM
[43]
  TGI: > 100 µM
[45]
  TGI: 39.5 µM
[46]
  TGI: > 100 µM
[47]
  TGI: > 100 µM
[48]
  TGI: > 100 µM
[49]
  TGI: 72.4 µM
[50]
  TGI: > 100 µM
[52]
  TGI: > 100 µM
[53]
  TGI: 96 µM
[54]
  TGI: > 100 µM
[55]
  TGI: > 100 µM
[56]
  TGI: > 100 µM
[57]
  TGI: > 100 µM
[58]
  TGI: > 100 µM
